Test: in vitro
Details: human, hek293t cells
Description: Mammalian cytotoxicity measurement was performed using Cell Titer-Glo 2.0 Cell Viability Assay (Promega, G9243) according to the manufacturer protocol. In brief, mammalian cells were seeded into 384-well white plates (Greiner, 781080) and incubated at 37°C for one day. Compounds from the Cys-Library were dispensed into the assay plate using epMotion 96. The plates were then incubated at 37°C for two days. An equal volume of Cell Titer-Glo 2.0 reagent was added into each well of the assay plate using epMotion 96 and incubated at 22°C for 10 min, followed by luminescence measurement using a Cytation 5 plate reader (BioTek).

| SMILES | viability at 48 h, 25 µM [%] |
| --- | --- |
| C=CC(=O)N(Cc1cc2ccccn2n1)CC1(O)CCCCC1 [1-H15, N-[(1-hydroxycyclohexyl)methyl]-N-({pyrazolo[1,5-a]pyridin-2-yl}methyl)prop-2-enamide] | 102 |
| CCc1cc(SC#N)cc(C)c1NC(=O)CCl [4-M04, 2-chloro-N-[4-(cyanosulfanyl)-2-ethyl-6-methylphenyl]acetamide] | 17.6 |
| C=CC(=O)N1CCc2c(ncn2-c2ccccc2)C1 [3-N09, 1-{1-phenyl-1H,4H,5H,6H,7H-imidazo[4,5-c]pyridin-5-yl}prop-2-en-1-one] | 70.1 |
| C=CCNC(=O)C(C#N)=Cc1c(C)nn(-c2ccc(F)cc2)c1Cl [9-L07, 3-[5-chloro-1-(4-fluorophenyl)-3-methyl-1H-pyrazol-4-yl]-2-cyano-N-(prop-2-en-1-yl)prop-2-enamide] | 91.8 |
| C=CC(=O)N(Cc1c(C)cc(Cl)cc1C)CC1COCCO1 (stereo not shown) [1-J09, N-[(4-chloro-2,6-dimethylphenyl)methyl]-N-[(1,4-dioxan-2-yl)methyl]prop-2-enamide] | 81.4 |
| C=CC(=O)NCCc1ccnn1C [2-O17, N-[2-(1-methyl-1H-pyrazol-5-yl)ethyl]prop-2-enamide] | 178 |
| Cc1ccc(C)c(CN(CCO)C(=O)CCl)c1 [5-K20, 2-chloro-N-[(2,5-dimethylphenyl)methyl]-N-(2-hydroxyethyl)acetamide] | 2.44 |
| CC1CSc2ccccc2N(C(=O)CCl)C1 (stereo not shown) [5-H07, 2-chloro-1-(3-methyl-2,3,4,5-tetrahydro-1,5-benzothiazepin-5-yl)ethan-1-one] | 0.825 |
| N#CC(=Cc1ccccc1Cl)C(=O)Nc1cccc2ncccc12 [8-C15, 3-(2-chlorophenyl)-2-cyano-N-(quinolin-5-yl)prop-2-enamide] | 51 |
| CNC(=O)C(C#N)=Cc1cccc(C)c1C [9-D14, 2-cyano-3-(2,3-dimethylphenyl)-N-methylprop-2-enamide] | 112 |
| CCN(C(=O)CCl)C(c1ccccc1)c1ccc(F)cc1 (stereo not shown) [6-J11, 2-chloro-N-ethyl-N-[(4-fluorophenyl)(phenyl)methyl]acetamide] | 0.263 |
| C=CCNC(=O)C(C#N)=Cc1ccc(-c2ccc(F)cc2)o1 [8-L20, 2-cyano-3-[5-(4-fluorophenyl)furan-2-yl]-N-(prop-2-en-1-yl)prop-2-enamide] | 114 |
| Cc1cccc(-n2cc(C(=O)CCl)nn2)c1 [10-L07] | 81.5 |
| CC(Cl)C(=O)NCCN(C)S(=O)(=O)c1cccs1 (stereo not shown) [7-F05, 2-chloro-N-[2-(N-methylthiophene-2-sulfonamido)ethyl]propanamide] | 97.9 |
| Cc1nn(C)c(N2CCCN(C)CC2)c1CNC(=O)C(C)Cl (stereo not shown) [6-N17, 2-chloro-N-{[1,3-dimethyl-5-(4-methyl-1,4-diazepan-1-yl)-1H-pyrazol-4-yl]methyl}propanamide] | 107 |
| O=C(CCl)NCCc1cccc2ccccc12 [6-E14, 2-chloro-N-[2-(naphthalen-1-yl)ethyl]acetamide] | 4.85 |
| CC(C)c1cccc(C(C)C)c1NC(=O)CCl [5-G13, N-[2,6-bis(propan-2-yl)phenyl]-2-chloroacetamide] | 37.8 |
| C=CC(=O)NCCNC(=O)C1CC12CCSCC2 (stereo not shown) [2-O06, N-[2-({6-thiaspiro[2.5]octan-1-yl}formamido)ethyl]prop-2-enamide] | 88.3 |
| O=C(CCl)Nc1ccccc1C(=O)Nc1ccc(Cl)cc1 [4-G10, 2-(2-chloroacetamido)-N-(4-chlorophenyl)benzamide] | 0.0501 |
| Cn1nnc(CN(C(=O)CCl)C2CCCCCCC2)n1 [5-A16, 2-chloro-N-cyclooctyl-N-[(2-methyl-2H-1,2,3,4-tetrazol-5-yl)methyl]acetamide] | 0.784 |
| O=C1C=CC(=O)N1c1ccccc1Sc1ccccc1 [10-K12, 1-[2-(phenylsulfanyl)phenyl]-2,5-dihydro-1H-pyrrole-2,5-dione] | 63 |
| CNC(=O)c1cc(OC2CCN(C(=O)C(C)Cl)C2)ccn1 (stereo not shown) [7-G03, 4-{[1-(2-chloropropanoyl)pyrrolidin-3-yl]oxy}-N-methylpyridine-2-carboxamide] | 111 |
| CC(Cl)C(=O)NCc1nnnn1CC1CC1 (stereo not shown) [6-F14, 2-chloro-N-{[1-(cyclopropylmethyl)-1H-1,2,3,4-tetrazol-5-yl]methyl}propanamide] | 115 |
| N#CC(=Cc1ccccc1Cl)C(=O)Nc1ccc(Cl)cc1 [8-B11, 3-(2-chlorophenyl)-N-(4-chlorophenyl)-2-cyanoprop-2-enamide] | 113 |
| O=C(CCl)NCc1ccccc1SC(F)(F)F [7-N12, 2-chloro-N-({2-[(trifluoromethyl)sulfanyl]phenyl}methyl)acetamide] | 0.794 |
| CC(Cl)C(=O)N(Cc1ccc(Cl)cc1)Cc1cnn(C)c1 (stereo not shown) [5-P17, 2-chloro-N-[(4-chlorophenyl)methyl]-N-[(1-methyl-1H-pyrazol-4-yl)methyl]propanamide] | 116 |

| SMILES | viability at 48 h, 25 µM [%] |
| --- | --- |
| C=CC(=O)NCc1nc(C(C)(C)O)n[nH]1 [2-E15, N-{[3-(2-hydroxypropan-2-yl)-1H-1,2,4-triazol-5-yl]methyl}prop-2-enamide] | 116 |
| C=CC(=O)NCc1ccc(C(=O)N2CCC(c3nnc(C)o3)CC2)cc1 [2-M18, N-({4-[4-(5-methyl-1,3,4-oxadiazol-2-yl)piperidine-1-carbonyl]phenyl}methyl)prop-2-enamide] | 87.6 |
| C=CC(=O)N1CCC(C(=O)N2CCOc3cc(F)ccc3C2)CC1 [3-E06, 1-[4-(8-fluoro-2,3,4,5-tetrahydro-1,4-benzoxazepine-4-carbonyl)piperidin-1-yl]prop-2-en-1-one] | 67.9 |
| C=CC(=O)NCc1cc(Cl)cc(S(C)(=O)=O)c1 [3-N15, N-[(3-chloro-5-methanesulfonylphenyl)methyl]prop-2-enamide] | 76.8 |
| C=CC(=O)N(Cc1cc(Cl)ccc1OC)C1CCCOCC1 (stereo not shown) [2-C07, N-[(5-chloro-2-methoxyphenyl)methyl]-N-(oxepan-4-yl)prop-2-enamide] | 95.3 |
| O=C(CCl)Nc1ccc(S(=O)(=O)N2CCCCC2)cc1 [4-H06, 2-chloro-N-[4-(piperidine-1-sulfonyl)phenyl]acetamide] | 0.963 |
| COc1ccc(NC(=O)CCl)cc1S(=O)(=O)N1CCCCC1 [4-B08, 2-chloro-N-[4-methoxy-3-(piperidine-1-sulfonyl)phenyl]acetamide] | 0.454 |
| O=C1C=CC(=O)N1c1ccc(OC(F)(F)F)cc1 [10-J19, 1-[4-(trifluoromethoxy)phenyl]-2,5-dihydro-1H-pyrrole-2,5-dione] | 85.4 |
| C=CC(=O)NCCN(C)S(=O)(=O)c1cccs1 [2-A09, N-[2-(N-methylthiophene-2-sulfonamido)ethyl]prop-2-enamide] | 129 |
| O=C(CCl)Nc1nc2c(s1)CCc1ccccc1-2 [6-D03, 2-chloro-N-{4H,5H-naphtho[1,2-d][1,3]thiazol-2-yl}acetamide] | 0.611 |
| CN(C(=O)CCl)c1c(N)n(Cc2ccccc2)c(=O)[nH]c1=O [4-E06, N-(6-amino-1-benzyl-2,4-dioxo-1,2,3,4-tetrahydropyrimidin-5-yl)-2-chloro-N-methylacetamide] | 22.8 |
| Cc1ccc(C=C(C#N)C(=O)Nc2cc(Cl)ccc2Cl)s1 [9-E19, 2-cyano-N-(2,5-dichlorophenyl)-3-(5-methylthiophen-2-yl)prop-2-enamide] | 107 |
| CC(Cl)C(=O)N1CCCC1c1nc(-c2ccccc2)c(C(C)C)o1 (stereo not shown) [7-H11, 2-chloro-1-{2-[4-phenyl-5-(propan-2-yl)-1,3-oxazol-2-yl]pyrrolidin-1-yl}propan-1-one] | 79.2 |
| O=C(CCl)NC1CCCCCC1 [5-H16, 2-chloro-N-cycloheptylacetamide] | 17.7 |
| C=CC(=O)N1CCC(C(=O)N[C@@H](C)C(=O)NC)(c2ccccc2)CC1 [2-B16, (2S)-N-methyl-2-{[4-phenyl-1-(prop-2-enoyl)piperidin-4-yl]formamido}propanamide] | 87 |
| Cc1ccc(NC(=O)C(C)Cl)cc1S(=O)(=O)N1CCOCC1 (stereo not shown) [5-D22, 2-chloro-N-[4-methyl-3-(morpholine-4-sulfonyl)phenyl]propanamide] | 77.8 |
| Cc1c(C#N)c(NC(=O)CCl)n(Cc2cccs2)c1C [4-C04, 2-chloro-N-{3-cyano-4,5-dimethyl-1-[(thiophen-2-yl)methyl]-1H-pyrrol-2-yl}acetamide] | 0.255 |
| C=CC(=O)Nc1cnn(CC(F)(F)F)c1 [1-A11, N-[1-(2,2,2-trifluoroethyl)-1H-pyrazol-4-yl]prop-2-enamide] | 91.8 |
| CN(C)c1nc(N2CCOCC2)ncc1NC(=O)CCl [5-M22, 2-chloro-N-[4-(dimethylamino)-2-(morpholin-4-yl)pyrimidin-5-yl]acetamide] | 38.9 |
| COc1ccc(C=C(C#N)C(=O)NC2CCCCC2)cc1O [8-H13, 2-cyano-N-cyclohexyl-3-(3-hydroxy-4-methoxyphenyl)prop-2-enamide] | 86.5 |
| C=CC(=O)NCc1cn(C)nc1-c1ccccn1 [2-H03, N-{[1-methyl-3-(pyridin-2-yl)-1H-pyrazol-4-yl]methyl}prop-2-enamide] | 79.4 |
| O=C(CCl)Nc1ccc(SC(F)F)cc1 [4-B10, 2-chloro-N-{4-[(difluoromethyl)sulfanyl]phenyl}acetamide] | -0.0257 |
| CCC(NC(=O)CCl)c1c(C)noc1C (stereo not shown) [7-D03, 2-chloro-N-[1-(3,5-dimethyl-1,2-oxazol-4-yl)propyl]acetamide] | 104 |
| O=C(CCl)NCC(=O)Nc1nccs1 [5-G22, 2-chloro-N-{[(1,3-thiazol-2-yl)carbamoyl]methyl}acetamide] | 3.47 |
| CC(Cl)C(=O)Nc1sc2c(c1C#N)CCCCC2 (stereo not shown) [5-B20, 2-chloro-N-{3-cyano-4H,5H,6H,7H,8H-cyclohepta[b]thiophen-2-yl}propanamide] | 60 |
| Cc1cccc2[nH]cc(C(=O)CCl)c12 [10-H09, 2-chloro-1-(4-methyl-1H-indol-3-yl)ethan-1-one] | 5.75 |
